These results are taken from PMC11233931, “Remodeling tumor‐associated macrophage for anti‐cancer effects by rational design of irreversible inhibition of mitogen‐activated protein kinase‐activated protein kinase 2” (MedComm, 2024).

Series [1] can be described thus: Mouse pharmacokinetics study. It is filed as in vivo. The following applies: male, ICR, plasma, mice, ip. 10 mg/kg, mean ± SD. How it is done:
Compound 11 was dissolved in DMSO/Tween 80/PEG400/NaCl (5/5/45/45, v/v/v/v) to a concentration of 5 mg/mL and given to ICR mice (male, 18−22 g, n = 3) by intraperitoneal injection. Blood samples were obtained at intervals of 0.25, 0.5, 1, 2, 4, and 8 h following administration. The sample preparation and the analysis were following the protocol provided in the Supporting Information Methods.
[…] of plasma was mixed with […] of methanol: acetonitrile solvent (1:1, v/v) with internal standard, and the mixture was thoroughly vortexed. After centrifugation for 5 minutes, […] of the supernatant was combined with […] of water for analysis. Samples were analyzed by Xevo TQ-S triple quadrupole mass spectrometer. The ACQUITY UPLC BEH C^18 (1.7 µm, 2.0mm_ 50 mm, Waters, USA) was adopted for the analysis. Gradient elution was employed using a 5 mM ammonium acetate aqueous solution containing 0.1% formic acid, along with acetonitrile containing 0.1% formic acid. Following the analysis of compound concentrations, Phoenix WinNonlin (CERTARA, USA) was utilized to calculate the value of AUClast, AUCINFinf_obs and MRTINFinf_obs from time-concentration curves in each animal. Cmax denotes the peak plasma concentration, while Tmax signifies the time taken to achieve the peak concentration.

The test system of series [2] is IL-6 and TNF-α secretion by RAW264.7 cells. Description: Cytokine production by ELISA in LPS-stimulated RAW264.7. Conditions: LPS-stimulated RAW264.7, 24 h. Format: cell-based, mouse. As to the method: FIGURE 4 Targeting cellular MK2 signaling with irreversible inhibition by compound 11. (A and B) RT‐PCR analysis of IL‐1β, TNF‐α, and IL‐6 expression in Lipopolysaccharides (LPS)‐stimulated THP‐1 (A) and RAW264.7 (B) Cells, with pre‐treatment of compound 11 for 3 h followed by LPS (3 h) stimulation. (C) The inhibitory effects of compound 11 on TNF‐α and IL‐6 production in LPS‐stimulated RAW264.7 macrophages for 24 h, measured by ELISA. (D and E) Compound 11, alongside CC‐99677 and PF‐3644022, suppressed MK2 pathway activation, validated through western blot analysis post‐LPS stimulation. Cells were preincubated with the specified compounds for 1 h prior to LPS stimulation (100 ng/mL, 30 min). (F) Distinguishes the mode of action between compound 11 and CC‐99677. The complex structure of a small molecule and MK2 (3R2Y) with the same parent nucleus as compound 11 is shown in cyans, and the complex structure of a small molecule and MK2 (3FYJ) with the same parent nucleus as CC‐99677 is shown in orange. (G–I) The effect of indicated inhibitor on Hsp27 phosphorylation following inhibitor washout. […]
Following collection and centrifugation of the cell culture media, supernatants were harvested and the levels of cytokine secretion were evaluated using specific ELISA kits (absin), following the manufacturer's protocol.
Background: An ELISA detects its analyte on a solid surface through an enzyme-linked reagent.

Series [3] deals with TAMs and CD206+ TAMs in MC38 tumor. Put plainly: Flow cytometry of tumor infiltrating TAMs in MC38 tumor model. Conditions: treated 9 days. Format: in vivo, mouse. How it is done: FIGURE 5 Inhibition of pro‐tumorigenic M2‐like polarization in macrophages by compound 11. (A–C) RT‐PCR analysis highlights the impact of compound 11 on MRC1 and ARG‐1 mRNA expression in various macrophage cells treated with IL‐4/IL‐13 alone or combined with compound 11 for 12 h or 24 h. (D) CD206 and Arg‐1 expression in bone marrow‐derived macrophages (BMDM) cells via flow cytometry post 48 h treatment of compound 11 and IL‐4/IL‐13. (E) The treatment effects of compound 11 in THP‐1 cells using western blot analysis. Cells were pretreated with compound 11 for 1 h and followed by IL‐4/IL‐13 treatment (30 min). (F) The influence of MK2 siRNA on MRC1 and ARG‐1 mRNA expression in THP‐1 cells by RT‐PCR analysis post‐IL‐4/IL‐13 stimulation (12 h). […] Data are shown as the mean ± SD. ^* p < 0.05; ^*** p < 0.001 versus the vehicle group, determined by unpaired t test. […]
Antibodies targeting specific proteins along with corresponding isotype controls or FMO controls were employed to examine the leukocyte infiltrate: CD11b, CD45, CD206, Arg‐1, and F4/80 (BD, eBioscience and Biolegend). […] Eventually, the gathered data were analyzed using the FlowJo software, with the gating strategies utilized for flow cytometry represented in Figure S5.

With `C=CC(=O)Nc1cc(-c2cc(-c3cc4c([nH]3)CCNC4=O)ccn2)ccc1OC(F)(F)F` [compound 11], in series [1], the AUC(0-t) (commonly the area under the concentration-time curve up to a stated or last time point) was determined as 44.5 ± 21.4 ng·h/mL; the Cmax – broadly, the highest concentration seen after dosing – was found to be 126 ng/mL; the Tmax (commonly the time at which the peak concentration occurs) worked out at 3 min; the half-life (in general, the time needed for the level to fall by half in the phase considered) was 22.8 min. In addition, in series [1] (read-out: AUCinf_obc), the AUC is 45.2 ± 21.3 ng·h/mL. Also, the MRT inf in series [1] (read-out: MRTinf_obs) amounted to 1.64 ± 2.08 h. Moreover, the “effect on secretion level of IL-6 and TNF-α” value in series [2] is given as “similarly reduced”. For the same compound, the “effect on total and M2-like (CD206+) TAM populations in tumor” value in series [3] is “marked reduction”.
